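Values below derive from 48-hour exposures of cells grown in 96-well plates, with endpoints linearly interpolated between the two concentrations bracketing the appropriate inhibition level. GI50 marks 50% less growth. TGI: concentration producing complete growth inhibition.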
Tests used:
Assay in all cases: DTP human tumour cell line panel, 48 h
EKVX NSCLC = test system: EKVX NSCLC
MOLT-4 leukemia = test system: MOLT-4 leukemia
U251 CNS = test system: U251 CNS
HCC-2998 colon = test system: HCC-2998 colon
PC-3 prostate = test system: PC-3 prostate
SW-620 colon = test system: SW-620 colon
OVCAR-8 ovarian = test system: OVCAR-8 ovarian
NCI-H460 lung = test system: NCI-H460 lung
TK-10 renal = test system: TK-10 renal
MDA-MB-231 breast = test system: MDA-MB-231 breast

Row | Compound | GI50 (EKVX NSCLC) [µM] | TGI (EKVX NSCLC) [µM] | GI50 (MOLT-4 leukemia) [µM] | TGI (MOLT-4 leukemia) [µM] | GI50 (U251 CNS) [µM] | TGI (U251 CNS) [µM] | GI50 (HCC-2998 colon) [µM] | TGI (HCC-2998 colon) [µM] | GI50 (PC-3 prostate) [µM] | TGI (PC-3 prostate) [µM] | GI50 (SW-620 colon) [µM] | TGI (SW-620 colon) [µM] | GI50 (OVCAR-8 ovarian) [µM] | TGI (OVCAR-8 ovarian) [µM] | GI50 (NCI-H460 lung) [µM] | TGI (NCI-H460 lung) [µM] | GI50 (TK-10 renal) [µM] | TGI (TK-10 renal) [µM] | GI50 (MDA-MB-231 breast) [µM] | TGI (MDA-MB-231 breast) [µM]
1 | O=S(=O)(Nc1ccc(F)cc1F)c1ccc(-c2cnc(C3CC3)o2)cc1 | 1.44 | > 73 | 0.652 | > 70.1 | 0.552 | 26.8 | 2.39 | 27.3 | 0.897 | > 50.1 | 0.395 | > 100 | 1.57 | > 95.2 | 0.404 | 28.2 | 3.2 | 48.3 | 1.37 | 21.7
2 | O=C(O)CC(NC(=O)CP(=O)(O)O)C(=O)O (stereo unspecified) |  | 7860 |  | 6910 |  | > 10000 |  | > 10000 |  | > 10000 |  | > 10000 |  | > 8110 | 79.5 | > 8670 |  | > 10000 |  | > 10000
3 | OCCCNc1nccc(-c2c(-c3ccc(F)cc3)nn3cc(C(F)(F)F)ccc23)n1 | 20.5 | > 25 | 14.3 | > 25 | 19.3 | > 25 | > 23.4 | > 25 | 15.1 | > 25 | > 25 | > 25 | 16.9 | > 25 | 9.12 | > 25 | 15.9 | > 25 | 24.6 | > 25
4 | N=C(N)c1ccc2nc(-c3cc(CC(=O)N[C@@H](CC(=O)O)C(=O)O)cc(-c4cc(S(N)(=O)=O)ccc4O)c3O)[nH]c2c1 | > 100 | > 100 | > 100 | > 100 | > 100 | > 100 | > 100 | > 100 | > 100 | > 100 | > 100 | > 100 | > 100 | > 100 | > 100 | > 100 | > 100 | > 100 | > 100 | > 100
5 | NC(=O)c1cc(S(=O)(=O)Nc2nnc(-c3ccccc3)c(-c3ccccc3)n2)c(SCc2ccccc2)cc1Cl | > 100 | > 100 | 38.2 | > 70.1 | > 55.6 | > 100 | > 100 | > 100 | > 62.2 | > 100 | > 56.1 | > 100 | > 50.3 | > 77.5 | > 46.2 | > 83.1 | > 100 | > 100 | > 85.4 | > 100
6 | CCOC(=O)c1c(NC(=O)c2cccc(C(F)(F)F)c2)sc2c(CN(C)C)c(O)ccc12 | 15.2 | 36.1 | 3.77 | 38.8 | 2.21 | 5.45 | 1.77 | 3.77 | 5.45 | 18.1 | 2.31 | 5.53 | 6.12 | 18.8 | 2.19 | 4.76 | 4.25 | 15.8 | 4.23 | 15.2
7 | C#COc1cccc(Nc2c(C#N)cnc3ncc(NC(=O)CCl)cc23)c1 | > 62.5 | > 62.5 | 4.2 | > 62.5 | 12.5 | 53.6 | > 62.5 | > 62.5 | 32.5 | > 62.5 | 19.8 | > 62.5 | 46 | > 62.5 | 31.9 | > 62.5 | > 62.5 | > 62.5 | 32 | > 62.5
8 | COc1ccc(-c2coc3c4c(ccc3c2=O)OCO4)cc1OC |  | > 100 |  | > 100 |  | > 100 |  | > 100 |  | > 100 |  | > 100 |  | > 100 |  | > 100 |  | > 100 |  | > 100
9 | CCn1sc2ccccc2c1=O |  | 38.2 |  | > 100 |  | 16.1 |  | 34 |  | 29.3 |  | > 58.4 |  | 35.8 |  | > 100 |  | 30.9 |  | 27.2
10 | CCN1C(=O)N(CC)C2C1NN=c1s/c(=C3\C(=O)N(CC(C)(C)C)c4ccccc43)c(=O)n12 (stereo unspecified) | 5.07 | 54.2 | 3.79 | 40.3 | 4.13 | 20.6 | 3.4 | 13.8 | 4.31 | 31.5 | 4.75 | 21.9 | 4.67 | > 100 | 3.39 | 13.4 | 15.3 | 48.5 | 0.151 | 2.29
11 | CSc1ccc2c(c1)C(=O)c1c-2n(CCCBr)c(=O)c2cc([N+](=O)[O-])ccc12 | > 100 | > 100 | 0.558 | 17 | 1.98 | > 100 | 74.4 | > 100 | 25.8 | > 100 | 4.04 | > 100 | 27.6 | > 100 | 0.547 | > 100 | > 100 | > 100 | > 100 | > 100
12 | CCCCCOc1ccc(/C=N/Nc2cc(C)nc3ccc(Br)cc23)cc1 | 1.63 | 3.11 | 1.73 | 3.58 | 1.82 | 3.39 | 2.07 | 3.8 | 1.55 | 3.02 | 1.92 | 3.63 | 2.13 | 4.73 | 1.94 | 3.7 | 1.87 | 3.42 | 1.77 | 3.41
13 | CCOC(=O)/C=C(/C)Sc1cc(O)c2ccccc2c1O | 3.89 | 21.2 | 2.33 | 7.08 | 4.31 | 24 | 16.2 | 31.1 | 4.59 | 22.8 | 2.3 | 5.39 | 2.99 | 12.9 | 13.9 | 30.4 | 8.29 | 17.9 | 2.67 | 15.3
